The text below walks through data of ChEMBL document CHEMBL3137667, “[Drug-induced liver injury; fourteenth updated edition of the bibliographic database of liver injuries and related drugs]” (Gastroenterol Clin Biol, 2004).

For series [1] the following is noted: human.
For series [2] the following is noted: human, serum, 4383 h.
The nature of series [3]: Highest frequency of acute liver toxicity observed during clinical trials, expressed as a percentage. [column '% AIGUE' in source]. The following applies: human.
Series [4] in a line: Proposed mechanism(s) of liver damage. [column 'MEC' in source]. Conditions: human.
For series [5] the following is noted: human. This is another data set of the same source.
The conditions of series [6]: human. The source holds these as a separate data set.
For series [7] the following is noted: human. The source holds these as a separate data set.
For series [8] the following is noted: human, serum.
The conditions of series [9]: human. This is another data set of the same source.
For series [10] the following is noted: human. This is another data set of the same source.
The conditions of series [11]: human. This is another data set of the same source.
Series [12] can be described thus: Highest frequency of moderate liver toxicity observed during clinical trials, expressed as a percentage. [column '% BIOL' in source]. Conditions: human.
The conditions of series [13]: human. The source holds these as a separate data set.
The conditions of series [14]: human, serum. This is another data set of the same source.
For series [15] the following is noted: human. The source holds these as a separate data set.
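Throughout, for Hepatotoxicity (association with vascular disease): count of indexed literature references reporting vascular liver injury in humans, e.g. peliosis hepatitis, hepatic veno-occlusive disease or Budd-Chiari syndrome.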
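Throughout, for Hepatotoxicity (benign tumour): value is a count of indexed literature references citing a benign tumour confirmed by histopathology.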
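Throughout, for Hepatotoxicity (choleostasis): human cholestatic liver injury, shown by histopathology or by peak ALT or AST elevation over alkaline phosphatase ratio below 2, value counts indexed literature reports.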
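Throughout, for Hepatotoxicity (chronic liver disease): chronic liver injury confirmed by histopathology or persistently raised serum aminotransferase activity beyond 6 months, value given as the count of indexed literature references.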
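Throughout, for Hepatotoxicity (cirrhosis): value is a count of indexed literature references reporting cirrhosis confirmed by histopathology.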
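Throughout, for Hepatotoxicity (cytolytic): human cytolytic liver injury, shown by histopathology or by a ratio above 5 of peak ALT or AST elevation to alkaline phosphatase elevation, value counts indexed references.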
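Throughout, for Hepatotoxicity (granulomatous hepatitis): value is a count of indexed literature references reporting granulomatous liver disease confirmed by histopathology.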
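Throughout, for Hepatotoxicity (malignant tumour): malignant tumour confirmed by histopathology, value gives the count of indexed literature references reporting it.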
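Throughout, for Hepatotoxicity (severe hepatitis): human clinical data: severe hepatitis, meaning potentially life-threatening liver failure or clinically observed cases, the value counts how many indexed literature references report it.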
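Throughout, for Hepatotoxicity (steatosis): steatosis confirmed by histopathology, value is the count of indexed references.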

Consider PEGLOTICASE, for which the “Hepatotoxicity (cytolytic)” value in series [1] is recorded as 0. For the same molecule, the “Hepatotoxicity (chronic liver disease)” value in [2] came to 0. In addition, the “Hepatotoxicity (acute)” value in series [3] came to 0%; in series [8], 0. Moreover, in series [4], the “Hepatotoxicity (mechanism)” value is reported as “Dose-dependant”. Besides, the “Hepatotoxicity (malignant tumour)” value in series [5] was determined as 0. Further, in series [6], the “Hepatotoxicity (granulomatous hepatitis)” value was 0. In addition, in series [7], the “Hepatotoxicity (cirrhosis)” value came to 0. Moreover, the “Hepatotoxicity (benign tumour)” value in [9] worked out at 0. Further, in [10], the “Hepatotoxicity (severe hepatitis)” value was determined as 0. Besides, the “Hepatotoxicity (steatosis)” value in [11] is on record as 0. The figures for the “Hepatotoxicity (moderate)” value in [12] and in [14] were 3.7% and 1, respectively. Moreover, the “Hepatotoxicity (association with vascular disease)” value in series [13] was determined as 0. The “Hepatotoxicity (choleostasis)” value in series [15] was 0.
`CC(Cc1ccccc1)NCCC(c1ccccc1)c1ccccc1` (stereo not given) [PRENYLAMINE]: the “Hepatotoxicity (cytolytic)” value in series [1] was 0. Moreover, the “Hepatotoxicity (chronic liver disease)” value in [2] turned out to be 0. Besides, the “Hepatotoxicity (acute)” value in [3] is given as 0%; in [8], 0. In addition, the “Hepatotoxicity (mechanism)” value in [4] was “Dose-dependant”. In series [5], the “Hepatotoxicity (malignant tumour)” value is 0. The “Hepatotoxicity (granulomatous hepatitis)” value in series [6] is listed as 0. Besides, in [7], the “Hepatotoxicity (cirrhosis)” value came to 0. Also, the “Hepatotoxicity (benign tumour)” value in [9] stood at 0. Also, the “Hepatotoxicity (severe hepatitis)” value in series [10] is reported as 0. Besides, in series [11], the “Hepatotoxicity (steatosis)” value was determined as 0. For the same molecule, the “Hepatotoxicity (moderate)” value in series [12] was found to be 7.7%; in [14] it was 1. In addition, the “Hepatotoxicity (association with vascular disease)” value in series [13] is 0. Besides, in series [15], the “Hepatotoxicity (choleostasis)” value came to 0.
On to `O=C1CN(/N=C/c2ccc([N+](=O)[O-])o2)C(=O)N1CO` [NIFURTOINOL], for which the “Hepatotoxicity (cytolytic)” value in [1] was determined as 0. For the same molecule, the “Hepatotoxicity (chronic liver disease)” value in series [2] was determined as 2. In addition, the “Hepatotoxicity (acute)” value in series [3] amounted to 0%; in series [8] it was 0. Also, the “Hepatotoxicity (mechanism)” value in series [4] was “Allergic”. Further, the “Hepatotoxicity (malignant tumour)” value in [5] turned out to be 0. In addition, the “Hepatotoxicity (granulomatous hepatitis)” value in series [6] came out at 0. Further, the “Hepatotoxicity (cirrhosis)” value in series [7] was 0. In addition, in series [9], the “Hepatotoxicity (benign tumour)” value is listed as 0. Also, the “Hepatotoxicity (severe hepatitis)” value in series [10] was determined as 0. Besides, the “Hepatotoxicity (steatosis)” value in series [11] came to 0. Moreover, the “Hepatotoxicity (moderate)” value was determined as 0% in series [12] and 0 in series [14]. The “Hepatotoxicity (association with vascular disease)” value in series [13] was determined as 0. Besides, the “Hepatotoxicity (choleostasis)” value in series [15] is 0.
With `CCC1(CC)C(=O)NCC(C)C1=O` (stereo not given) [METHYPRYLON], in series [1], the “Hepatotoxicity (cytolytic)” value amounted to 1. Besides, in series [2], the “Hepatotoxicity (chronic liver disease)” value worked out at 0. Also, the “Hepatotoxicity (acute)” value stood at 0% in series [3] and 1 in series [8]. In [4], the “Hepatotoxicity (mechanism)” value is “Dose-dependant”. The “Hepatotoxicity (malignant tumour)” value in [5] was 0. Also, in [6], the “Hepatotoxicity (granulomatous hepatitis)” value came out at 0. Besides, the “Hepatotoxicity (cirrhosis)” value in series [7] was determined as 0. Also, the “Hepatotoxicity (benign tumour)” value in series [9] came to 0. In addition, the “Hepatotoxicity (severe hepatitis)” value in series [10] is reported as 0. Also, in series [11], the “Hepatotoxicity (steatosis)” value is reported as 0. The entries for the “Hepatotoxicity (moderate)” value in series [12] and in series [14] were 0% and 1, respectively. In addition, in series [13], the “Hepatotoxicity (association with vascular disease)” value was 0. In addition, the “Hepatotoxicity (choleostasis)” value in series [15] was found to be 1.
As to `CCN(CC)CC[n+]1ccc2c(C)c3[nH]c4ccc(O)cc4c3c(C)c2c1.[Cl-]` [DATELLIPTIUM CHLORIDE], the “Hepatotoxicity (cytolytic)” value in [1] came out at 2. Moreover, the “Hepatotoxicity (chronic liver disease)” value in series [2] is given as 0. For the same molecule, the results for the “Hepatotoxicity (acute)” value in series [3] and in series [8] were 7.1% and 2, respectively. The “Hepatotoxicity (mechanism)” value in series [4] is recorded as “Dose-dependant”. Further, the “Hepatotoxicity (malignant tumour)” value in [5] was 0. In addition, the “Hepatotoxicity (granulomatous hepatitis)” value in [6] came out at 0. For the same molecule, in series [7], the “Hepatotoxicity (cirrhosis)” value worked out at 0. Besides, the “Hepatotoxicity (benign tumour)” value in series [9] is recorded as 0. Also, in series [10], the “Hepatotoxicity (severe hepatitis)” value was 0. Besides, the “Hepatotoxicity (steatosis)” value in series [11] is 0. The “Hepatotoxicity (moderate)” value in [12] turned out to be 66.7%; in series [14] it was 2. Further, the “Hepatotoxicity (association with vascular disease)” value in series [13] was 0. Further, the “Hepatotoxicity (choleostasis)” value in series [15] worked out at 0.
Take `[H]/N=C(/N)N[C@H]1[C@H](O)[C@@H](O)[C@H](O[C@@H]2O[C@@H](C)[C@](O)(C=O)[C@H]2O[C@@H]2O[C@@H](CO)[C@H](O)[C@@H](O)[C@@H]2NC)[C@@H](N/C(N)=N\[H])[C@@H]1O` [STREPTOMYCIN]: the “Hepatotoxicity (cytolytic)” value in [1] (Liver) worked out at 2. The “Hepatotoxicity (chronic liver disease)” value in [2] was determined as 0. For the same molecule, the “Hepatotoxicity (acute)” value was found to be 0% in series [3] (Liver) and 4 in series [8]. In series [4] (Liver), the “Hepatotoxicity (mechanism)” value is recorded as “Allergic”. Moreover, the “Hepatotoxicity (malignant tumour)” value in series [5] came out at 0. The “Hepatotoxicity (granulomatous hepatitis)” value in series [6] (Liver) came to 0. For the same molecule, the “Hepatotoxicity (cirrhosis)” value in series [7] came to 0. For the same molecule, the “Hepatotoxicity (benign tumour)” value in series [9] was determined as 0. Besides, the “Hepatotoxicity (severe hepatitis)” value in series [10] (Liver) is on record as 0. Besides, the “Hepatotoxicity (steatosis)” value in series [11] turned out to be 0. In addition, the “Hepatotoxicity (moderate)” value is given as 0% in [12] (Liver) and 1 in series [14]. The “Hepatotoxicity (association with vascular disease)” value in series [13] turned out to be 0. Also, in series [15] (Liver), the “Hepatotoxicity (choleostasis)” value amounted to 1.
Regarding INTERFERON ALFA-N1, the “Hepatotoxicity (cytolytic)” value in [1] is given as 0. Besides, in [2], the “Hepatotoxicity (chronic liver disease)” value stood at 0. For the same molecule, the “Hepatotoxicity (acute)” value was determined as 0% in [3] and 0 in series [8]. Also, the “Hepatotoxicity (mechanism)” value in series [4] is on record as “Dose-dependant”. For the same molecule, in series [5], the “Hepatotoxicity (malignant tumour)” value was found to be 0. The “Hepatotoxicity (granulomatous hepatitis)” value in [6] amounted to 0. For the same molecule, the “Hepatotoxicity (cirrhosis)” value in [7] stood at 0. Also, the “Hepatotoxicity (benign tumour)” value in series [9] came to 0. The “Hepatotoxicity (severe hepatitis)” value in series [10] came out at 0. Besides, the “Hepatotoxicity (steatosis)” value in series [11] is 0. Moreover, the “Hepatotoxicity (moderate)” value in series [12] is 42%; in series [14], 15. In [13], the “Hepatotoxicity (association with vascular disease)” value is recorded as 0. For the same molecule, in series [15], the “Hepatotoxicity (choleostasis)” value was determined as 0.
`CN(Cc1cnc2nc(N)nc(N)c2n1)c1c(Cl)cc(C(=O)N[C@@H](CCC(=O)O)C(=O)O)cc1Cl`: in series [1], the “Hepatotoxicity (cytolytic)” value is 0. Moreover, the “Hepatotoxicity (chronic liver disease)” value in series [2] was 0. Besides, the “Hepatotoxicity (acute)” value was determined as 0% in series [3] and 0 in series [8]. In [4], the “Hepatotoxicity (mechanism)” value is given as “Dose-dependant”. Also, in [5], the “Hepatotoxicity (malignant tumour)” value was 0. Also, the “Hepatotoxicity (granulomatous hepatitis)” value in series [6] was 0. The “Hepatotoxicity (cirrhosis)” value in series [7] amounted to 0. Moreover, the “Hepatotoxicity (benign tumour)” value in series [9] was 0. In addition, in [10], the “Hepatotoxicity (severe hepatitis)” value worked out at 0. For the same molecule, the “Hepatotoxicity (steatosis)” value in series [11] was 0. The figures for the “Hepatotoxicity (moderate)” value in series [12] and in [14] were 16.7% and 2, respectively. Also, in series [13], the “Hepatotoxicity (association with vascular disease)” value is 0. Further, the “Hepatotoxicity (choleostasis)” value in series [15] was 0.
